Experiments:
[1] = test system: A2780 ovarian cancer cells; test: Ruthenium accumulation in cancer cells (ICP-MS); assay type: cell-based, human; details: for Cell Ru: A2780, 1/3 x IC50, 24 h drug exposure, no recovery time; for Cell accum.: A2780, 24 h, 1/3 x IC50
Description: Briefly, 1.5 × 10^6 cells per well were seeded on a six-well plate. […] After this time, cells were washed, treated with trypsin-EDTA, counted and cell pellets were collected. Each pellet was digested overnight in concentrated nitric acid (73%) at 353 K; the resulting solutions were diluted using double-distilled water to give a final concentration of 5% HNO3 and the amount of Ru taken up by the cells was determined by ICP–MS. […]
Supplementary Table 3: Antiproliferative activity of complexes 1-8 in A2780 ovarian cancer cells and their cellular accumulation (expressed as ng Ru per million cells).
The latter experiments were carried out using equipotent concentrations of the […]
experiments were performed as duplicates of triplicates in independent experiments and the error bars were calculated as the standard deviation from the mean. […]

[2] = test system: A2780 human ovarian cancer cells; test: In vitro growth inhibition assay (SRB), A2780; assay type: cell-based
Description: A2780 human ovarian carcinoma and MRC5 human fetal lung fibroblasts were obtained from the European Collection of Cell Cultures. Both cell lines were grown in Roswell Park Memorial Institute medium (RPMI-1640) supplemented with 10% of fetal calf serum, 1% of 2 mM glutamine and 1% penicillin/streptomycin. All cells were grown as adherent monolayers at 310 K in a 5% CO2-humidified atmosphere and passaged at ca. 70–80% confluency.
The antiproliferative activity of complexes 1–8 was determined in A2780 ovarian cancer cells and MRC5 fibroblasts. Briefly, 96-well plates were used to seed 5,000 cells per well. The plates were left to pre-incubate with drug-free medium at 310 K for 48 h before adding different concentrations of the compounds to be tested. A drug exposure period of 24 h was allowed. After this, supernatants were removed by suction and each well was washed with PBS. A further 72 h were allowed for the cells to recover in drug-free medium at 310 K. The sulforhodamine B (SRB) assay was used to determine cell viability. IC50 values, as the concentration that causes 50% cell death, were determined as duplicates of triplicates in two independent sets of experiments and their s.d. were calculated.

[3] = test system: A2780 ovarian cancer cells; test: Cell viability on co-administration of Ru complexes (1/3 x IC50) with formate or acetate; assay type: cell-based, human; details: for Cell viability: A2780, complex 1/3 x IC50, 24 h
Description: Cell viability assays were carried out with complexes 1–8 in A2780 ovarian cancer cells. These experiments were carried out as described above with the following modifications: a fixed concentration of each Ru complex equal to 1/3 × IC50 was used in co-administration with three different concentrations of sodium formate or sodium acetate (0.5, 1.0 and 2.0 mM). To prepare the stock solution of the drug, the complex was dissolved in 5% dimethylsulfoxide and diluted in a 1:1 mixture of 0.9% saline:cell culture medium. This stock was further diluted using RPMI-1640 until working concentrations were achieved. Separately, stock solutions of sodium formate or sodium acetate were prepared in saline. The complex and formate were added to each well independently, but within 5 min of each other.
Supplementary Table 7: Percent cell viability of A2780 ovarian cancer cells exposed to equipotent concentrations of ruthenium complexes 1-3 and 5-8 (1/3 x […]
The experiments included 48 h of pre-incubation and 72 h of drug recovery, both in drug-free medium at 310 K in a 5% CO2 humidified atmosphere. All the experiments were performed as duplicates of triplicates in independent experiments and the error bars were calculated as the standard deviation from the mean.
Supplementary Table 11: Cell viability (%) of A2780 ovarian cancer cells exposed […]
administered with different concentrations of sodium acetate (0, 0.5, 1 and 2 mM).
The experiments involved 48 h of pre-incubation and 72 h of drug recovery, both in […]
Cell viability percentages (%)
Complex Acetate concentration (mM)

SMILES | Cell Ru [1] | Cell accum. [1] | IC50 ([2]; A2780, Supplementary Table 3) | Cell viability ([3]; formate 0 mM) | Cell viability ([3]; formate 0.5 mM) | Cell viability ([3]; formate 1 mM) | Cell viability ([3]; formate 2 mM) | decrease in cell survival ([3]; A2780, formate increased from 0 to 2 mM) | IC50 ([2]; A2780, 24 h drug exposure, no formate) | toxicity of formate itself to the cells ([3]; A2780, 0 to 2 mM)
CS(=O)(=O)[N-]CCN.[Cl-].[Ru+2].c1ccc(-c2ccccc2-c2ccccc2)cc1 [Complex 5, [(o-terp)Ru(MsEn)Cl]] | 2.8 ± 0.3 ng x 106 cells | 2.8 ng Ru/10^6 cells | 12.4 ± 0.9 µM | 73.59 ± 0.04% | 71.9 ± 0.4% | 44.2 ± 0.2% | 5.8 ± 0.6% |  |  | 
Cc1ccc(S(=O)(=O)[N-]CCN)cc1.[Cl-].[Ru+2].c1ccc(-c2ccccc2-c2ccccc2)cc1 [Complex 6, [(o-terp)Ru(TsEn)Cl]] | 2.1 ± 0.4 ng x 106 cells |  | 15.8 ± 0.8 µM | 72.8 ± 0.9% | 59 ± 3% | 43.6 ± 1.4% | 22.2 ± 0.8% |  |  | 
NCC[N-]S(=O)(=O)c1ccc(C(F)(F)F)cc1.[Cl-].[Ru+2].c1ccc(-c2ccccc2-c2ccccc2)cc1 [Complex 7, [(o-terp)Ru(TfEn)Cl]] | 2.4 ± 0.3 ng x 106 cells | 2.4 ng Ru/10^6 cells | 21.2 ± 0.1 µM | 40 ± 2% | 20.8 ± 0.6% | 11.9 ± 0.6% | 2.5 ± 0.7% | ca. 16 fold |  | 
N.N.[Cl][Pt][Cl] [cisplatin, reference compound] |  |  |  |  |  |  |  |  | 1.2 µM | 
O=C[O-].[Na+] [formate, sodium formate] |  |  |  |  |  |  |  |  |  | non-toxic

— PMC4383003, “Transfer hydrogenation catalysis in cells as a new approach to anticancer drug design” (Nature Communications, 2015)
